Results taken from PMC11575542 (Chemical Science, 2024).

How the values were obtained:
FabB (ketosynthase) = FabB (ketosynthase) (Escherichia coli, UniProt P0A953); format: binding
FabF (ketosynthase) = FabF (ketosynthase) (Escherichia coli, UniProt P0AAI5); format: binding
Sequence of FabF (ketosynthase) (P0AAI5 2-413): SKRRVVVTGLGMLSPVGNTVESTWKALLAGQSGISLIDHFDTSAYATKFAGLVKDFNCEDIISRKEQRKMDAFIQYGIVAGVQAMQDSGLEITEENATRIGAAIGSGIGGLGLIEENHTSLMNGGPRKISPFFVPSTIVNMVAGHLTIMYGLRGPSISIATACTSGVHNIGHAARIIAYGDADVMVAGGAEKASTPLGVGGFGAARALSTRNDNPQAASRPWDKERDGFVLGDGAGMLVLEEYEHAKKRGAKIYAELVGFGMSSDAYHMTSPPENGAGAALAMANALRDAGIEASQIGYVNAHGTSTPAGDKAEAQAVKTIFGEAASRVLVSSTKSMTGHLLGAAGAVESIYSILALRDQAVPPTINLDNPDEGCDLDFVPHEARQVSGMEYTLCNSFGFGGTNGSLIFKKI
Sequence of FabF (ketosynthase) (P0A6A8 2-78 partner): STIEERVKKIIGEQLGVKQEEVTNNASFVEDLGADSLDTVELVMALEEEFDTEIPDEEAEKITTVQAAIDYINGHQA

Sequence of FabB (ketosynthase) (P0A953 whole entry): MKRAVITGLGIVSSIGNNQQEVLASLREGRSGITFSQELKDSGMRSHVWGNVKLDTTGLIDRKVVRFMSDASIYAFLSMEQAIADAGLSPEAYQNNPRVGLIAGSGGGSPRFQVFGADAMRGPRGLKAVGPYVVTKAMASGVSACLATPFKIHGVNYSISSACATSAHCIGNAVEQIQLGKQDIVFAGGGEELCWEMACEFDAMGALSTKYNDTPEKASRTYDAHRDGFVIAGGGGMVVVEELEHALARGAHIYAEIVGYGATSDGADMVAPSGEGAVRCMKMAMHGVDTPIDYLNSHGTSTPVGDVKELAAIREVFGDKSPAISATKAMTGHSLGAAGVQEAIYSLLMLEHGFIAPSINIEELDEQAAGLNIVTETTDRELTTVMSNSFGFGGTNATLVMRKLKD
Sequence of FabB (ketosynthase) (P0A6A8 2-78 partner): as the sequence (P0A6A8 2-78 partner) above

## C/C=C/C/C=C/CCC(=O)[C@H]1O[C@H]1C(N)=O [cerulenin]
FabB (ketosynthase)
  IC50: ~22.5 µM
FabF (ketosynthase)
  IC50: ~21.1 µM
